Here are results for 3 compounds from patent publication US5387614A, “Use of sigma receptor ligands as salivary gland stimulants” (University of Iowa Research Foundation, priority 1993, dated 1995).

In assay [1] the target is sigma-binding site. In words: 3H-DTG radioligand saturation binding (Scatchard plot) in submaxillary gland membrane homogenate. Details: species or system New Zealand white rabbits. The following applies: single binding site; membrane homogenate of acini cells from rabbit submaxillary gland; 4° C., 60 min; spiperone 25 nM. The method, then: In this procedure, New Zealand white rabbits were sacrificed using 1/2-1 ml of Beuthanasia-D Special (Schering Plough Animal Health, Keniworth, N.J.: 390 mg pentobarital sodium and 50 mg phenytoin sodium per ml) by injecting the preparation into the marginal ear vein. Whole submaxillary glands, free of blood, were dissected and either used immediately or frozen in cold 100 mM tris-HCl (pH 7.4) buffer. Glandular tissue was rinsed with cold 50 mM Tris-HCl (pH 7.4) followed by homogenization for 30 sec (Polytron, Brinkman Instr., setting 7). The homogenate was centrifuged at 800 rpm for 10 min at 4° C. to remove extraneous tissue. Then the supernatant was centrifuged at 75,000 Xg for 15 min at 4° C. (model L8-55, Preparative Ultracentrifuge, Beckman Instruments, Fullerton, Calif.). Following centrifugation, the pellet was homogenized again in 100 mM tris-HCl buffer and centrifuged at 75,000 Xg for 15 min. The resulting pellet containing the membrane fragments was suspended in Tris-HCl buffer to yield a concentration of 250 mg (wet wt) per mL. […]
Spiperone (25 nM) was added to prevent binding to D2 dopamine or 5HT2 serotonin receptors. […] The filter, containing the precipitate, was transferred to a scintillation vial containing 1 mL of tissue solubilizer (Soluene 350, Packard Inst.) and 4 mL of scintillation fluid (Budget Solve , Fisher Scientific, Fair Lawn, N.J.) and counted (Beckman LS 3801). […]

In assay [2] the target is sigma receptors. In words: Radioligand competition experiments in submaxillary gland membrane homogenate. The format is binding, New Zealand white rabbits. The following applies: radioligand 3H-DTG (5 nM); rabbit submaxillary gland membranes; 4° C., 60 minutes; spiperone 25 nM; mean ± spread; read-out: averaged IC50. In general terms: Loss of bound radioactivity is the signal in a displacement assay; it reports binding, not function.
Description: In this procedure, New Zealand white rabbits were sacrificed using 1/2-1 ml of Beuthanasia-D Special (Schering Plough Animal Health, Keniworth, N.J.: 390 mg pentobarital sodium and 50 mg phenytoin sodium per ml) by injecting the preparation into the marginal ear vein. Whole submaxillary glands, free of blood, were dissected and either used immediately or frozen in cold 100 mM tris-HCl (pH 7.4) buffer. Glandular tissue was rinsed with cold 50 mM Tris-HCl (pH 7.4) followed by homogenization for 30 sec (Polytron, Brinkman Instr., setting 7). The homogenate was centrifuged at 800 rpm for 10 min at 4° C. to remove extraneous tissue. Then the supernatant was centrifuged at 75,000 Xg for 15 min at 4° C. (model L8-55, Preparative Ultracentrifuge, Beckman Instruments, Fullerton, Calif.). Following centrifugation, the pellet was homogenized again in 100 mM tris-HCl buffer and centrifuged at 75,000 Xg for 15 min. […]
Spiperone (25 nM) was added to prevent binding to D2 dopamine, or 5HT2 serotonin receptors. […] The filter along with the adhering precipitate was transferred to a scintillation vial containing 1 mL of tissue solubilizer (Soluene 350, Packard Inst., Downers Grove, Ill.) and 4 mL of scintillation fluid (Budget Solve , Fisher Scientific, Fair Lawn, N.J.) and counted (Beckman LS 3801). […] Specific binding was determined by subtracting NSB from total binding. […]

The test system of assay [3] is salivary secretion. In words: Saliva flow observed after topical dosing of the rabbit eye. Type of assay: in vivo. The following applies: rabbit eye dosed topically (use as dry eye syndrome treatment). The source says: The observations of effective salivary stimulation actually occurred during use of the most preferred compound wherein N=2, and R and R" are methyl, as dry eye syndrome treatment. […] This led to further investigations of this and other compounds as a means of treating dry mouth associated with, for example, Sjogren's syndrome. The present compound for example could be formulated into a conventional lozenge for a topical application directly in the oral cavity to stimulate saliva flow. Such lozenges can either be made by dissolving the drug in water, adding powdered sugar, flavor and a gum (e.g., 7% powdered acacia) to give sufficient adhesiveness. This type of lozenge is harder than a conventional tablet, but dissolves slowly. The lozenge formulation is made by compressing the formula on a tablet press according to the art.

Molecules are shown by their SMILES.

What is called Kd is the equilibrium constant for the complex coming apart. The compound `Cc1ccccc1NC(=N)Nc1ccccc1C` [3H-DTG] returned a Kd in assay [1] of 6 ± 1.2 nM.

In general, IC50 refers to the concentration needed to halve the response being measured. Turning to `CN(Cc1cc(Br)cc(Br)c1N)C1CCCCC1` [bromhexine], the IC50 in assay [2] came to 690 ± 276 nM.

As to `CN(C)CCc1ccccc1` [most preferred compound, N,N-dimethyl-2-phenylethylamine], in assay [3], the saliva flow result is listed as “copious amounts of saliva flowed from about one half of the rabbits”.
